From patent publication US12594267B2, “Capsid inhibitors for the treatment of HIV” (Gilead Sciences, Inc., priority 2018, dated 2026)

Experiment: PK after subcutaneous administration of solutions in dogs
Type: in vivo, Beagle dog
Settings: for Plasma concentration: SC 12 mg/kg, 300 mg/mL (22.6% water/50% PEG 300/1.1% NaOH/26.3% Formula (Ia))
Protocol: Formulations containing the compound of Formula (Ia) were prepared as aqueous solutions or oral formulations and administered subcutaneously to rats, dogs, cynomolgus monkey, and/or rhesus monkey.
A solution of the compound of Formula (Ia) in 10% ethanol, 13% water, and 77% PEG 200 (400 mg/mL) was prepared. The solution was administered subcutaneously to dogs at a dose of 12 mg/kg and rats at a dose of 50 mg/kg and the pharmacokinetic (PK) profile was determined. […] In both species, plasma concentrations of the compound of Formula (Ia) were maintained above the target trough concentration of 20 nM (corresponding to an IQ of 5) for at least 84 days (12 weeks).
A solution of the compound of Formula (Ia) in 15% water and 85.0 PEG 300 (400 mg/mL) was prepared. The solution was administered subcutaneously to male beagle dogs at a dose level of 12 mg/kg and dose volume of […] and the pharmacokinetic (PK) profile was determined.
A solution of the compound of Formula (a) sodium salt in water and 300 (300 mg/mL) was prepared that contained 22.6% water/50% PEG 300/1.1% NaOH/26.3% Formula (Ia). The solution was administered subcutaneously to male beagle dogs at a dose level of 12 mg/kg and dose volume of […] and the pharmacokinetic (PK) profile was determined.
A 300 mg/ml solution of a compound of Formula (Ia) having 9.8 w/w % water, 65.0 w/w % PEG 300, and 25.2 w/w % of the compound of Formula (Ia) was prepared. The solution was administered subcutaneously to rats at a dose of 50 mg/kg and to dogs at a dose of 12 mg/kg and the pharmacokinetic (PK) profile was determined. […] In the rat, plasma concentrations of the compound of Formula (Ia) were maintained above the target trough concentration of 20 nM for at least 168 days (24 weeks). In the dog, plasma concentrations of the compound of Formula (Ia) were maintained above the target trough concentration of 20 nM for at least 84 days (12 weeks).
(§1) A 150 mg/ml solution of a compound of Formula (Ia) having 27.92 w/w % water, 58.04 w/w % PEG 300, 13.47 w/w % of a compound of Formula (Ia), and 1.1 w/w % NaOH was prepared. The solution was administered subcutaneously to rats at a dose of 50 mg/kg and to dogs at a dose of 12 mg/kg and the pharmacokinetic (PK) profile was determined. […] In the rat, plasma concentrations of the compound of Formula (Ia) were maintained above the target trough concentration of 20 nM for at least 126 days (18 weeks). In the dog, plasma concentrations of the compound of Formula (Ia) were maintained above the target trough concentration of 20 nM for at least 56 days (8 weeks).
as §1, with “300” for “150”, “23.2” for “27.92”, “50.0” for “58.04”, “25.7” for “13.47”
A 50 mg/ml solution of a compound of Formula (Ia) having 30.07 w/w % water, 64.40 w/w % PEG 300, 4.68 w/w % of a sodium salt of the compound of Formula (Ia), and 0.85 w/w % poloxamer 188 was prepared. The solution was administered subcutaneously to rats at a dose of 50 mg/kg and to dogs at a dose of 6 mg/kg and the pharmacokinetic (PK) profile was determined. […] In the rat, plasma concentrations of the compound of Formula (Ia) were maintained above the target trough concentration of 20 nM for at least 28 days (4 weeks). In the dog, plasma concentrations of the compound of Formula (Ia) were maintained above the target trough concentration of 20 nM for at least 14 days (2 weeks). […]

[1] = male beagle dog, single SC 12 mg/kg, 300 mg/mL, 50, 22.6, 1.1, 26.3 w/w % PEG300:Water:NaOH:Formula (Ia), mean ± SD, n=3

Compound: CC(C)(C#Cc1ccc(-c2ccc(Cl)c3c([N-]S(C)(=O)=O)nn(CC(F)(F)F)c23)c([C@H](Cc2cc(F)cc(F)c2)NC(=O)Cn2nc(C(F)(F)F)c3c2C(F)(F)[C@@H]2C[C@H]32)n1)S(C)(=O)=O.[Na+] [Formula (Ia) sodium salt]
- Plasma concentration (dog #1, 0 h): BLQ
- Plasma concentration (dog #1, 1.0 h): 14.0 nM
- Plasma concentration (dog #1, 3.0 h): 26.0 nM
- Plasma concentration (dog #1, 8.0 h): 56.3 nM
- Plasma concentration (dog #1, 24 h): 57.1 nM
- Plasma concentration (dog #1, 48 h): 71.1 nM
- Plasma concentration (dog #1, 72 h): 51.5 nM
- Plasma concentration (dog #1, 96 h): 46.4 nM
- Plasma concentration (dog #1, 168 h): 47.7 nM
- Plasma concentration (dog #2, 0 h): BLQ
- Plasma concentration (dog #2, 1.0 h): 7.2 nM
- Plasma concentration (dog #2, 3.0 h): 17.0 nM
- Plasma concentration (dog #2, 8.0 h): 25.8 nM
- Plasma concentration (dog #2, 24 h): 25.4 nM
- Plasma concentration (dog #2, 48 h): 29.0 nM
- Plasma concentration (dog #2, 72 h): 16.2 nM
- Plasma concentration (dog #2, 96 h): 14.0 nM
- Plasma concentration (dog #2, 168 h): 13.6 nM
- Plasma concentration (dog #3, 0 h): BLQ
- Plasma concentration (dog #3, 1.0 h): 8.6 nM
- Plasma concentration (dog #3, 3.0 h): 16.8 nM
- Plasma concentration (dog #3, 8.0 h): 32.1 nM
- Plasma concentration (dog #3, 24 h): 54.5 nM
- Plasma concentration (dog #3, 48 h): 57.8 nM
- Plasma concentration (dog #3, 72 h): 58.0 nM
- Plasma concentration (dog #3, 96 h): 59.2 nM
- Plasma concentration (dog #3, 168 h): 43.1 nM
- Plasma concentration (dog mean, n=3, 1.0 h): 10.0 nM
- Plasma concentration (dog mean, n=3, 3.0 h): 19.9 nM
- Plasma concentration (dog mean, n=3, 8.0 h): 38.1 nM
- Plasma concentration (dog mean, n=3, 24 h): 45.7 nM
- Plasma concentration (dog mean, n=3, 48 h): 52.6 nM
- Plasma concentration (dog mean, n=3, 72 h): 41.9 nM
- Plasma concentration (dog mean, n=3, 96 h): 39.9 nM
- Plasma concentration (dog mean, n=3, 168 h): 34.8 nM
- AUC0-24h [1]: 0.85 ± 0.31 µM·h
- AUC0-48h [1]: 2.03 ± 0.76 µM·h
- AUC0-72h [1]: 3.16 ± 1.27 µM·h
- AUC0-168h [1]: 6.83 ± 3.24 µM·h
